Assays:
[1] = tested on: OSM-stimulated IL-6 secretion from U343 cells; assay: OSM-induced IL-6 release from U343 glioma cells (IL-6 ELISA of conditioned medium); format: cell-based, human; conditions: for Remaining IL-6 expression [% of control]: 100 ng/ml OSM, 24 h, IL-6 release of vehicle-treated cells set to 100% (n = 2), mean ± SD; for Effect on OSM-induced IL-6 secretion (in words): OSM-stimulated
Experimental: The human glioma cell line U343 [34] was maintained in DMEM containing 10% fetal bovine serum and 60 μg/ml gentamycin (Invitrogen, Darmstadt, Germany) at 37°C in a 10% CO2 atmosphere.
(§1) Measurements of IL-6 in conditioned medium and murine plasma samples were done by means of human- or murine-specific IL-6 Cytoset kits (Invitrogen, Darmstadt, Germany) according to manufacturer's protocols.
Using the characterized cell culture model of OSM-induced IL-6 expression, our in-house compound libraries were screened for potent IL-6 expression inhibitors. Human U343 glioma cells were treated with 100 ng/ml OSM for 24 h. The analysis by IL-6 ELISA identified a set of structurally related compounds as potent inhibitors of IL-6 secretion (Table 1). […] HAKs with proline in position P1 are known from the literature as inhibitors of prolyl endopeptidase (PREP), a proline-specific serine protease.

[2] = target: T1, human recombinant prolyl endopeptidase (PREP) (Homo sapiens, UniProt P48147); assay: PREP enzymatic activity assay (Z-Gly-Pro-pNA, photometric); format: biochemical; conditions: for Ki: recombinant PREP, Z-Gly-Pro-pNA 62.5/125/250 μM, pH 7.6, 30°C, competitive fit
T1 construct: made in house
T1 sequence (P48147 1-710): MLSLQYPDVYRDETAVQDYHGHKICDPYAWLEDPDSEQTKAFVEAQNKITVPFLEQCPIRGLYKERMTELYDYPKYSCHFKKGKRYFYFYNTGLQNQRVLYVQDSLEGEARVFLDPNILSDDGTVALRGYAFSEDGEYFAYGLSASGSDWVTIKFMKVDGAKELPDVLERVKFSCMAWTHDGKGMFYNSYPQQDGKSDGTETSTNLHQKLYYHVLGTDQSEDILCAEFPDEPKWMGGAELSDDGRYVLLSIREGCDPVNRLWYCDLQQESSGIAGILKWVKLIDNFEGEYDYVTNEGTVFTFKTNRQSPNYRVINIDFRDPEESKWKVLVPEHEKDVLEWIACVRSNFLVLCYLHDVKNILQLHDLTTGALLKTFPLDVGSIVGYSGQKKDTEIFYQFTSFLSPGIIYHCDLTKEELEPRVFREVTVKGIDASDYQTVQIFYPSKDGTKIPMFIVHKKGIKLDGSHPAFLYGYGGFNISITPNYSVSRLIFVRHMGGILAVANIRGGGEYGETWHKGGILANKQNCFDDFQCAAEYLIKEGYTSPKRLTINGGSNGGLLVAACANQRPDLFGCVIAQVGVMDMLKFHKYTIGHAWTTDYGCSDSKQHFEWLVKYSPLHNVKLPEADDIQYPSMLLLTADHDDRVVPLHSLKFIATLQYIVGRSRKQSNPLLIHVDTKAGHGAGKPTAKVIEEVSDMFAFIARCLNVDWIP
Experimental: The activity of human recombinant prolyl endopeptidase (PREP) was determined photometrically using the substrate Z-Gly-Pro-pNA (Bachem, Weil am Rhein, Germany) usually at a concentration of 150 μM. As assay buffer 50 mM HEPES buffer pH 7.6, containing 200 mM NaCl, 1 mM EDTA, and 1 mM dithiothreitol was used. Release of pNA was monitored continuously at 405 nm for 15 min at 30°C in a 96-well plate reader (Spectrafluor, Tecan, Crailsheim, Germany). PREP activity was calculated from the slope of the time product curve with the help of a pNA standard. For determination of Ki values three different substrate concentrations (62.5 μM; 125 μM and 250 μM) and seven different inhibitor concentrations were analyzed. Substrate concentrations were selected to be at the Km value of Z-Gly-Pro-pNA (125 μM) as well as half and twice the Km. Data were fitted by non-linear regression to the competitive inhibitor equation (Graphit 5.0, Erithacus software).

[3] = tested on: LPS-induced IL-6 release in primary rat astrocytes; assay: LPS-induced IL-6 release in primary rat astrocytes (ELISA); format: cell-based; conditions: 1 μg/ml LPS, 20 μM compound, 24 h
Experimental: (§2) According to Löffler, astrocyte-rich primary cell cultures were started with brains of newborn mice and rats and were maintained in Dulbecco's modified Eagle's medium (DMEM) for 33 days at 37°C in a humified atmosphere with 95% air/5% CO2.
as §1
(§3) Figure 5 Suppression of LPS-induced IL-6 release in primary murine astrocytes by selected HAK compounds. […] Astrocytes derived from newborn mice and rats were cultivated for 33 days followed by stimulation with 1 μg/ml LPS and treatment with compounds HAK-2 and HAK-5 (20 μM). After 24 hours conditioned media were analyzed with IL-6 specific ELISA. Data (mean ± SD) were obtained from experiments carried out in quadruplicate and statistical analysis was performed using the paired t test. Amount of IL-6 in LPS-treated control sample was set to 100%. ns, not significant; **p < 0.01; ***p < 0.001.
(§4) Primary murine astrocytes stimulated with 1 μg/ml LPS were co-treated with compounds HAK-2 and HAK-5 at a concentration of 20 μM each for 24 h. The observed effect of compounds HAK-2 and HAK-5 on LPS stimulation was similar to that of OSM-induced IL-6 expression in human U343 glioma cells (Figures 5A and 5B). […]

[4] = tested on: LPS-induced IL-6 release in primary mouse astrocytes; assay: LPS-induced IL-6 release in primary mouse astrocytes (ELISA); format: cell-based; conditions: 1 μg/ml LPS, 20 μM compound, 24 h
Experimental: as §2, §1, §3, §4

[5] = tested on: STAT3 phosphorylation at serine 727 (pSTAT3^S727) in U343 cells; assay: OSM-induced STAT3 / Erk1 phosphorylation in U343 cells (western blot, immunocytochemistry); format: cell-based, human; conditions: OSM 100 ng/ml, 20 μM compound, 6 h
Experimental: Human U343 cells were lysed with cell lysis buffer (Invitrogen, Darmstadt, Germany) supplemented with 0.2 mg/ml sodium orthovanadate (Sigma, Taufkirchen, Germany), protease inhibitor mix complete mini (Roche, Mannheim, Germany) and 1 mM AEBSF (Sigma, Taufkirchen, Germany) for 30 min on ice. Lysates were centrifuged for 15 min at 15,000 × g and 4°C. Protein content in supernatants was quantified by Bradford assay (Sigma, Taufkirchen, Germany) according to the manufacturer's protocol and stored at -20°C.
Western blotting was performed with 30 μg protein of whole-cell extracts, mixed with 4 x SDS sample loading buffer (Invitrogen, Darmstadt, Germany) and denatured for 10 min at 85°C. […]
Human U343 cells (1 × 10^5 cells/well) were grown on cover slips in 24-well plates (Greiner, Frickenhausen, Germany) for 24 h. […] Finally, cover slips were mounted on microscope slides and approximately 250 cells/sample were evaluated densitometrically by fluorescence microscopy (Zeiss, Jena, Germany) and MetaMorph Image Analysis Software (Universal Imaging Corporation, USA). […]
Figure 7 Effect of selected HAK compounds on OSM-induced STAT3 phosphorylation at serine 727 in U343 cells. […] For western blot analysis (A) 0.25 × 10^6 cells co-treated for 6 h with OSM (100 ng/ml) and selected HAK compounds (20 μM) were extracted and analyzed as described in experimental procedures. […]

[6] = tested on: OSM-induced IL-6 mRNA expression; parameters: method as in PMID 10899931; conditions: cited from earlier work

| Structure (SMILES) | Remaining IL-6 expression [% of control] [1] | Effect on OSM-induced IL-6 secretion (in words) [1] | Ki [2] | PREP inhibition (in words) [2] | Reduction of LPS-induced IL-6 expression [3] | Reduction of LPS-induced IL-6 expression [4] | Effect on pSTAT3^S727 phosphorylation (western blot) [5] | Suppression of OSM-mediated phosphorylation of pSTAT3^S727 (immunocytochemistry, densitometry) [5] | Effect on first OSM-induced IL-6 mRNA peak [6] | Effect on second OSM-induced IL-6 expression peak [6] |
| --- | --- | --- | --- | --- | --- | --- | --- | --- | --- | --- |
| O=C(N[C@@H](Cc1ccccc1)C(=O)N1CCC[C@H]1C(=O)c1nc2ccccc2s1)OCc1ccccc1 [HAK-1, Z-Phe-Pro-BTh] | 15.9 ± 1.87 % of control | significantly reduced | 4.6 nM |  |  |  |  |  |  |  |
| CC(C)C[C@H](NC(=O)[C@H](Cc1ccccc1)NC(=O)OCc1ccccc1)C(=O)c1nc2ccccc2s1 [HAK-3, Z-Phe-Leu-BTh] | 22.1 ±5.91 % of control | significantly reduced | > 1000 nM | poor PREP inhibitors |  |  |  |  |  |  |
| C[C@H](NC(=O)[C@H](Cc1ccccc1)NC(=O)OCc1ccccc1)C(=O)c1nc2ccccc2s1 [HAK-4, Z-Phe-Ala-BTh] | 35.1 ± 6.75 % of control | significantly reduced | > 10000 nM | poor PREP inhibitors |  |  |  |  |  |  |
| O=C(N[C@@H](Cc1ccccc1)C(=O)N1CCC[C@H]1C(=O)c1nccs1)OCc1ccccc1 [HAK-5, Z-Phe-Pro-Th] | 35.2 ± 12.92 % of control | significantly reduced | 0.11 nM |  | 50% | 60% |  |  |  |  |
| NCCCC[C@H](NC(=O)OCc1ccccc1)C(=O)N1CCC[C@H]1C(=O)c1nc2ccccc2s1 [HAK-6, Z-Lys-Pro-BTh] | 38.8 ± 5.26 % of control | significantly reduced | 4.1 nM |  |  |  |  |  |  |  |
| O=C(O)C[C@H](NC(=O)OCc1ccccc1)C(=O)N1CCC[C@H]1C(=O)c1nc2ccccc2s1 [HAK-7, Z-Asp-Pro-BTh] | 52.8 ± 3.91 % of control | significantly reduced | 12 nM |  |  |  |  |  |  |  |
| N=C(N)NCCC[C@H](NC(=O)OCc1ccccc1)C(=O)N1CCC[C@H]1C(=O)c1nc2ccccc2s1 [HAK-8, Z-Arg-Pro-BTh] | 96.8 ± 10.69 % of control | does not reduce | 3.2 nM | potent PREP inhibitor |  |  | significantly lower effect | did not |  |  |
| O=C(NC(Cc1ccccc1)C(=O)NC(Cc1ccccc1)C(=O)c1nc2ccccc2s1)OCc1ccccc1 (stereo not drawn) [HAK-9, Z-Phe-Phe-BTh] | 182.8 ± 25.41 % of control |  | > 10000 nM |  |  |  |  |  |  |  |
| COc1ccc(C[C@H](N)C(=O)N[C@H]2[C@@H](O)[C@H](n3cnc4c(N(C)C)ncnc43)O[C@@H]2CO)cc1 [puromycin] |  |  |  |  |  |  |  |  | no effect | completely abrogated |

Source: article PMC3161871, “Heteroarylketones inhibit astroglial interleukin-6 expression via a STAT3/NF-κB signaling pathway” (Journal of Neuroinflammation, 2011)
